# Measured values: US20080021026A1, “BENZOTHIOPHENE INHIBITORS OF RHO KINASE” (priority 2006, published 2008)
# Where two headings read alike, the source gives them in different places.
# Target: T1, recombinant N-terminal GST-tagged human Rho kinase 2 (ROCK2, amino acids 1-552) (Homo sapiens, UniProt O75116)
# T1 construct: ROCK2, amino acids 1-552; purchased Invitrogen Inc. PV3759
# Experiment: In vitro Rho kinase assay (luciferase-based ATP consumption), ROCK2
# Type: biochemical
# Description: In Vitro Rho Kinase Assay
# Rho kinase biochemical assays described below depend on firefly luciferase-based, indirect measurement of total ATP consumption by the kinase following incubation with substrate and ATP. 25 μl of Rho kinase assay buffer (20 mM Tris-HCL [pH 7.5], 1 mM MgCl2, 0.4 mM CaCl2, 0.15 mM EGTA, 0.1 mg/ml bovine serum albumin) containing 0.82 μg/ml of recombinant N-terminal GST-tagged human Rho kinase 1 (ROCK1, amino acids 1-535, Invitrogen Inc., cat. #PV-3691) or recombinant N-terminal GST-tagged human Rho kinase 2 (ROCK2, amino acids 1-552, Invitrogen Inc., cat #PV3759), 100 μg/ml S6 peptide substrate (related to amino acids 218-249 of the human 40S ribosomal protein S6, and suitable for ROCK1 or ROCK2, e.g. Upstate/Millipore Inc., cat #12-420), and 3 µM ATP are dispensed to wells of a 384 multi-well opaque plate. The plate is centrifuged for 30 seconds at approximately 200×g. 240 nl of test compound in DMSO is dispensed to each well by passive pin transfer. The lag phase of this in vitro kinase reaction permits addition of compounds soon after the reaction initiates. The reaction is allowed to incubate at 30° C. for 2 hours. The assay plates are sealed and maintained in a humidified environment. After 2 hours, 25 μl of easylite protein kinase assay reagent (Perkin-Elmer, Inc.) is dispensed. After an additional 10 minute incubation at room temperature (about 22° C.), luminescence activity is measured on a Molecular Devices Analyst multi-mode plate reader or other suitable plate reader. Kinase inhibition results in less ATP consumption, and therefore increased luminescence signal. Negative control activity is measured with DMSO lacking any test compound. The positive control is 2-methyl-1-(4-methylisoquinolin-5-ylsulfonyl)perhydro-1,4-diazepine hydrochloride (aka H-1152P, HCl salt). Efficacy is measured as a percentage of positive control activity. […] In some cases, kinase reactions and compound testing are performed in 1536 multi-well plates under similar conditions, with assay volumes appropriately scaled. The designation NT means the cited example was not tested.
# [1] = recombinant GST-tagged human ROCK2, luciferase-based ATP consumption, read-out: ROCK2 IC50
# T1 sequence (O75116 1-552): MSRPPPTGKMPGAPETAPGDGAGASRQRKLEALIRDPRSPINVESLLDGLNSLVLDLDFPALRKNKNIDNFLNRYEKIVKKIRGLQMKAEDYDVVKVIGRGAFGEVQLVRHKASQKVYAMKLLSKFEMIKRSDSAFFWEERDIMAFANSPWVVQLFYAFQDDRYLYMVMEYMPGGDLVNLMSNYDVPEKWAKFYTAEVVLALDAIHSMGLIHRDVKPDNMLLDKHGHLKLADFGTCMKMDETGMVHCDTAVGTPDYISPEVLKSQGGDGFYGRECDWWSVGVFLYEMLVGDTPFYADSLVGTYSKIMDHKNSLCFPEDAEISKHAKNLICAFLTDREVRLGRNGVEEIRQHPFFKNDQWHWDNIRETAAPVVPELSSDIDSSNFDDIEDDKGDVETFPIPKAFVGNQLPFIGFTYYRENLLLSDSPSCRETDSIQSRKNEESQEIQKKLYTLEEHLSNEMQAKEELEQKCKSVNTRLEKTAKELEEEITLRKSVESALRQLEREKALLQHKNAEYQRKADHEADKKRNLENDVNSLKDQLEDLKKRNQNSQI
SMILES,IC50 [1] [µM],"IC50 (ROCK2 IC50, recombinant GST-tagged human ROCK2, luciferase-based ATP consumption) [µM]"
"COc1ccc(CNC(=O)c2ccc3sc(-c4ccnc(N)n4)c(C)c3c2)cc1O [Example 451, COc1ccc(CNC(═O)c2ccc3sc(c(C)c3c2)-c4ccnc(N)n4)cc1O]",< 5,–
"CCN(C)C(=O)c1ccc2sc(-c3ccnc(N)n3)c(C)c2c1 [Example 460, CCN(C)C(═O)c1ccc2sc(c(C)c2c1)-c3ccnc(N)n3]",< 5,–
"Cc1c(-c2ccnc(N)n2)sc2ccc(C(=O)NCC3(O)CCCCC3)cc12 [Example 438, Cc1c(sc2ccc(cc12)C(═O)NCC3(O)CCCCC3)-c4ccnc(N)n4]",< 5,–
"Cc1c(-c2ccnc(N)n2)sc2ccc(C(=O)NCC(C)c3ccccc3)cc12 (stereo not shown) [Example 396, CC(CNC(═O)c1ccc2sc(c(C)c2c1)-c3ccnc(N)n3)c4ccccc4]",< 5,–
"Cc1c(-c2ccnc(N)n2)sc2ccc(C(=O)N[C@@H](C)c3ccccc3)cc12 [Example 376, C[C@H](NC(═O)c1ccc2sc(c(C)c2c1)-c3ccnc(N)n3)c4ccccc4]",< 5,–
"CCN(CC)CCCC(C)NC(=O)c1ccc2sc(-c3ccnc(N)n3)c(C)c2c1 (stereo not shown) [Example 431, CCN(CC)CCCC(C)NC(═O)c1ccc2sc(c(C)c2c1)-c3ccnc(N)n3]",> 5,–
"CCC(C)CNC(=O)c1ccc2sc(-c3ccnc(N)n3)c(C)c2c1 (stereo not shown) [Example 348, CCC(C)CNC(═O)c1ccc2sc(c(C)c2c1)-c3ccnc(N)n3]",< 5,–
"Cc1c(-c2ccnc(N)n2)sc2ccc(C(=O)N3CCCCC3C)cc12 (stereo not shown) [Example 472, CC1CCCCN1C(═O)c2ccc3sc(c(C)c3c2)-c4ccnc(N)n4]",< 5,–
"Cc1c(-c2ccnc(N)n2)sc2ccc(C(=O)NC(CO)C(C)C)cc12 (stereo not shown) [Example 362, CC(C)C(CO)NC(═O)c1ccc2sc(c(C)c2c1)-c3ccnc(N)n3]",< 5,–
"Cc1cccc(CNC(=O)c2ccc3sc(-c4ccnc(N)n4)c(C)c3c2)c1 [Example 375, Cc1cccc(CNC(═O)c2ccc3sc(c(C)c3c2)-c4ccnc(N)n4)c1]",< 5,–
"Cc1c(-c2ccnc(N)n2)sc2ccc(C(=O)NCCC(c3ccccc3)c3ccccc3)cc12 [Example 457, Cc1c(sc2ccc(cc12)C(═O)NCCC(c3ccccc3)c4ccccc4)-c5ccnc(N)n5]",> 5,–
"Cc1c(-c2ccnc(N)n2)sc2ccc(C(=O)NC(C)C)cc12 [Example 334, CC(C)NC(═O)c1ccc2sc(c(C)c2c1)-c3ccnc(N)n3]",> 5,–
"COCCNC(=O)c1ccc2sc(-c3ccnc(N)n3)c(C)c2c1 [Example 345, COCCNC(═O)c1ccc2sc(c(C)c2c1)-c3ccnc(N)n3]",< 5,–
"Cc1c(-c2ccnc(N)n2)sc2ccc(C(=O)N3CCCC3CO)cc12 (stereo not shown) [Example 475, Cc1c(sc2ccc(cc12)C(═O)N3CCCC3CO)-c4ccnc(N)n4]",< 5,–
"Cc1c(-c2ccnc(N)n2)sc2ccc(C(=O)N(CCC#N)Cc3ccccc3)cc12 [Example 433, Cc1c(sc2ccc(cc12)C(═O)N(CCC#N)Cc3ccccc3)-c4ccnc(N)n4]",< 5,–
"Cc1c(-c2ccnc(N)n2)sc2ccc(C(=O)NC3CCC(C)CC3)cc12 (stereo not shown) [Example 368, CC1CCC(CC1)NC(═O)c2ccc3sc(c(C)c3c2)-c4ccnc(N)n4]",> 5,–
"Cc1c(-c2ccnc(N)n2)sc2ccc(C(=O)NCCc3ccccc3Cl)cc12 [Example 427, Cc1c(sc2ccc(cc12)C(═O)NCCc3ccccc3Cl)-c4ccnc(N)n4]",–,< 5
"Cc1c(-c2ccnc(N)n2)sc2ccc(C(=O)NCc3cccc(F)c3)cc12 [Example 382, Cc1c(sc2ccc(cc12)C(═O)NCc3cccc(F)c3)-c4ccnc(N)n4]",< 5,–
"Cc1c(-c2ccnc(N)n2)sc2ccc(C(=O)NC(C)C(C)C)cc12 (stereo not shown) [Example 349, CC(C)C(C)NC(═O)c1ccc2sc(c(C)c2c1)-c3ccnc(N)n3]",> 5,–
"Cc1c(-c2ccnc(N)n2)sc2ccc(C(=O)NCc3ccccc3F)cc12 [Example 384, Cc1c(sc2ccc(cc12)C(═O)NCc3ccccc3F)-c4ccnc(N)n4]",< 5,–
"COc1ccc(NC(=O)c2ccc3sc(-c4ccnc(N)n4)c(C)c3c2)cc1OC [Example 426, COc1ccc(NC(═O)c2ccc3sc(c(C)c3c2)-c4ccnc(N)n4)cc1OC]",< 5,–
"Cc1c(-c2ccnc(N)n2)sc2ccc(C(=O)NCc3cccs3)cc12 [Example 367, Cc1c(sc2ccc(cc12)C(═O)NCc3cccs3)-c4ccnc(N)n4]",< 5,–
"Cc1c(-c2ccnc(N)n2)sc2ccc(C(=O)NCCC(C)(C)C)cc12 [Example 358, Cc1c(sc2ccc(cc12)C(═O)NCCC(C)(C)C)-c3ccnc(N)n3]",< 5,–
"Cc1c(-c2ccnc(N)n2)sc2ccc(C(=O)N(C)CC(C)C)cc12 [Example 467, CC(C)CN(C)C(═O)c1ccc2sc(c(C)c2c1)-c3ccnc(N)n3]",< 5,–
"CCN(CC)C(=O)c1ccc2sc(-c3ccnc(N)n3)c(C)c2c1 [Example 462, CCN(CC)C(═O)c1ccc2sc(c(C)c2c1)-c3ccnc(N)n3]",< 5,–
"Cc1ccc(C)c(CNC(=O)c2ccc3sc(-c4ccnc(N)n4)c(C)c3c2)c1 [Example 393, Cc1ccc(C)c(CNC(═O)c2ccc3sc(c(C)c3c2)-c4ccnc(N)n4)c1]",< 5,–

# The next lines start with results.
IC50 [1] [µM],SMILES,"IC50 (ROCK2 IC50, recombinant GST-tagged human ROCK2, luciferase-based ATP consumption) [µM]"
< 5,"Cc1ccc(Cl)cc1N1CCN(C(=O)c2ccc3sc(-c4ccnc(N)n4)c(C)c3c2)CC1 [Example 554, Cc1ccc(Cl)cc1N2CCN(CC2)C(═O)c3ccc4sc(c(C)c4c3)-c5ccnc(N)n5]",–
< 5,"Cc1c(-c2ccnc(N)n2)sc2ccc(C(=O)N(C)C3CCCCC3)cc12 [Example 482, CN(C1CCCCC1)C(═O)c2ccc3sc(c(C)c3c2)-c4ccnc(N)n4]",–
< 5,"Cc1c(-c2ccnc(N)n2)sc2ccc(C(=O)N(C)C[C@H](O)c3ccc(O)c(O)c3)cc12 [Example 528, CN(C[C@H](O)c1ccc(O)c(O)c1)C(═O)c2ccc3sc(c(C)c3c2)-c4ccnc(N)n4]",–
< 5,"Cc1c(-c2ccnc(N)n2)sc2ccc(C(=O)N(CCC#N)Cc3cccnc3)cc12 [Example 512, Cc1c(sc2ccc(cc12)C(═O)N(CCC#N)Cc3cccnc3)-c4ccnc(N)n4]",–
< 5,"Cc1c(-c2ccnc(N)n2)sc2ccc(C(=O)N(C)Cc3ccccc3)cc12 [Example 492, CN(Cc1ccccc1)C(═O)c2ccc3sc(c(C)c3c2)-c4ccnc(N)n4]",–
< 5,"CCOC(=O)C1CCCN(C(=O)c2ccc3sc(-c4ccnc(N)n4)c(C)c3c2)C1 (stereo not shown) [Example 510, CCOC(═O)C1CCCN(C1)C(═O)c2ccc3sc(c(C)c3c2)-c4ccnc(N)n4]",–
> 5,"Cc1c(-c2ccnc(N)n2)sc2ccc(C(=O)N3CCN(C4CCCCC4)CC3)cc12 [Example 519, Cc1c(sc2ccc(cc12)C(═O)N3CCN(CC3)C4CCCCC4)-c5ccnc(N)n5]",–
> 5,"Cc1c(-c2ccnc(N)n2)sc2ccc(C(=O)N(CCc3ccccc3)Cc3ccccc3)cc12 [Example 556, Cc1c(sc2ccc(cc12)C(═O)N(CCc3ccccc3)Cc4ccccc4)-c5ccnc(N)n5]",–
< 5,"Cc1c(-c2ccnc(N)n2)sc2ccc(C(=O)N3CCN(c4ccc(C(C)(C)C)cc4)CC3)cc12 [Example 562, Cc1c(sc2ccc(cc12)C(═O)N3CCN(CC3)c4ccc(cc4)C(C)(C)C)-c5ccnc(N)n5]",–
> 5,"Cc1c(-c2ccnc(N)n2)sc2ccc(C(=O)N3CCN(C(=O)OC(C)(C)C)CC3)cc12 [Example 530, Cc1c(sc2ccc(cc12)C(═O)N3CCN(CC3)C(═O)OC(C)(C)C)-c4ccnc(N)n4]",–
> 5,"Cc1c(-c2ccnc(N)n2)sc2ccc(C(=O)N3CCN(c4ccccc4C#N)CC3)cc12 [Example 532, Cc1c(sc2ccc(cc12)C(═O)N3CCN(CC3)c4ccccc4C#N)-c5ccnc(N)n5]",–
> 5,"Cc1cccc(N2CCN(C(=O)c3ccc4sc(-c5ccnc(N)n5)c(C)c4c3)CC2C)c1 (stereo not shown) [Example 535, CC1CN(CCN1c2cccc(C)c2)C(═O)c3ccc4sc(c(C)c4c3)-c5ccnc(N)n5]",–
< 5,"CCOC(=O)CC1C(=O)NCCN1C(=O)c1ccc2sc(-c3ccnc(N)n3)c(C)c2c1 (stereo not shown) [Example 529, CCOC(═O)CC1N(CCNC1═O)C(═O)c2ccc3sc(c(C)c3c2)-c4ccnc(N)n4]",–
< 5,"Cc1c(-c2ccnc(N)n2)sc2ccc(C(=O)N3CCSCC3)cc12 [Example 479, Cc1c(sc2ccc(cc12)C(═O)N3CCSCC3)-c4ccnc(N)n4]",–
> 5,"COc1ccc(CCN(C)C(=O)c2ccc3sc(-c4ccnc(N)n4)c(C)c3c2)cc1OC [Example 543, COc1ccc(CCN(C)C(═O)c2ccc3sc(c(C)c3c2)-c4ccnc(N)n4)cc1OC]",–
> 5,"Cc1c(-c2ccnc(N)n2)sc2ccc(C(=O)N3CCN(CCN4CCOCC4)CC3)cc12 [Example 548, Cc1c(sc2ccc(cc12)C(═O)N3CCN(CCN4CCOCC4)CC3)-c5ccnc(N)n5]",–
> 5,"COc1ccccc1N1CCN(C(=O)c2ccc3sc(-c4ccnc(N)n4)c(C)c3c2)CC1 [Example 541, COc1ccccc1N2CCN(CC2)C(═O)c3ccc4sc(c(C)c4c3)-c5ccnc(N)n5]",–
